Structures are written as SMILES. ≈ marks a conversion by molar mass, not a printed value.

This note sets out measurements from paper PMC9611598, “Cyclodextrin Derivatives as Promising Solubilizers to Enhance the Biological Activity of Rosmarinic Acid” (Pharmaceutics, 2022).

One assay has as its target T1, tyrosinase.
T1 construct: gene PPO3; mushroom tyrosinase is a guess from usual assay practice
The experiment in a line: L-DOPA oxidation, […] nm. Format: biochemical. Conditions: 2.0 mM L-DOPA stock, phosphate buffer pH 6.8, room temperature; RA in 50% DMSO, 0.05-2.5 mg/mL test solutions, 25 µL per well; value may refer to prepared solution, not final well concentration.

Assay [1] addresses AChE (acetylcholinesterase). The experiment in a line: Ellman assay, […] nm. The format is biochemical. Particulars: acetylthiocholine iodide, DTNB, Tris-HCl pH 8.0, room temperature; RA in DMSO, 2.5-25 mg/mL test solutions, 20 µL per well; value may refer to prepared solution, not final well concentration.

As to `O=C(/C=C/c1ccc(O)c(O)c1)O[C@H](Cc1ccc(O)c(O)c1)C(=O)O` [RA, rosmarinic acid], the IC50 worked out at 1591 ± 77 µg/mL (≈ 4.42 mM) against tyrosinase and 8983 ± 162 µg/mL (≈ 24.9 mM) in assay [1].
